We go through 2 compounds from US20040006783A1, “Compositions and methods for modulating Rop GTPase activity in plants” (THE REGENTS THE UNIVERSITY OF CALIFORINIA, priority 2002, published 2004).

One data set concerns ADH. In words: ADH specific activity in cell extracts of treated seedlings.
Data set [1] deals with GUS activity in ropgap4-1 seedlings. The experiment in a line: GUS specific activity in ropgap4-1 seedlings. In kind it is in vivo, Arabidopsis thaliana.
Another data set concerns ropgap4-1 seedlings. Conditions: for Viable Seedlings 48 h after Treatment: ropgap4-1, 30 μM DPI in 3% DMSO, mean ± SE.
A further data set concerns CA-rop2 seedlings. Conditions: for Viable Seedlings 48 h after Treatment: CA-rop2, 30 μM DPI in 3% DMSO, mean ± SE.
The next data set has as its system DN-rop2 seedlings. The settings on record: for Viable Seedlings 48 h after Treatment: DN-rop2, 30 μM DPI in 3% DMSO, mean ± SE.
For a further data set, the system named is WT seedlings. Conditions: for Viable Seedlings 48 h after Treatment: 30 μM DPI in 3% DMSO, mean ± SE.
The next data set concerns H2O2. Conditions: seedlings treated with caffeine and DPI for 24 h.

Like-named read-outs stand apart in the source and are kept apart here.

From the text for CA-rop2 seedlings: (§1) For oxygen deprivation, plates were transferred to an airtight chamber designed to allow entry and exit of 99.998% argon under 0.4 μmols/s^1m^2 per μÅ of light.
From the text for DN-rop2 seedlings: as §1
Method for H2O2: Caffeine (5 mM) was incorporated into the medium of plates to which seedlings were transferred. […] Control seedlings were treated with 3% (v/v) DMSO or transferred to plates not containing caffeine.
H2O2 levels were measured using a modification of the Terashima (1998) method (Terashima et al., Physiol. Plant. 103:295-303 (1998)). Tissue (0.5 g) was homogenized under liquid nitrogen, hydrated in 3 ml of 5% (w/v) metaphosphoric acid and centrifuged at 1,500×g at 4° C. for 20 min. The pH of the supernatant was adjusted to pH 7 with 1M Tricine, 6M NaOH. H2O2 levels were measured in a 500-μl reaction containing 200 mM MOPS-KOH (pH 7.8), 50 mM NADH in 10 mM potassium phosphate (pH 7.8). Absorbance at 340 nm was measured, 0.5 U of Streptococcusfaecalis NADH peroxidase (Sigma) was added, the sample was incubated for 1 h and absorbance at 340 nm was re-measured. H2O2 levels were determined from the decrease in absorbance in 60 min using a standard curve generated from similarly processed H2O2 standards.
From the text for WT seedlings: as §1

For the compound `Cn1c(=O)c2c(ncn2C)n(C)c1=O` [Caffeine], the “caffeine promoted increase in ADH specific activity” value is on record as “limited” with ADH (CA-rop2 seedlings) and “dramatic” with ADH (ropgap4-1 seedlings). In addition, the “induction of ADH specific activity” value in the data set on ADH (all four genotypes, non-stress conditions, caffeine 5 mM, 24 h) was “significantly higher levels than the maximal level observed in response to low oxygen”. For the same compound, the “effect on GUS activity” value in data set [1] (caffeine) is reported as “rose”.

On to `c1ccc2c(c1)[I+]c1ccccc1-2` [DPI, diphenylene iodonium chloride], for which the “Viable Seedlings 48 h after Treatment” value in the data set on ropgap4-1 seedlings (0 h oxygen deprivation) was 100 Percentage; with ropgap4-1 seedlings (6 h oxygen deprivation), 100 Percentage; in the data set on ropgap4-1 seedlings (12 h oxygen deprivation), 50 ± 5 Percentage; in the data set with ropgap4-1 seedlings (24 h oxygen deprivation), 0 Percentage; in the data set with CA-rop2 seedlings (0 h oxygen deprivation), 100 Percentage; in the data set on CA-rop2 seedlings (6 h oxygen deprivation), 100 Percentage. The “Viable Seedlings 48 h after Treatment” value came out at 100 Percentage in the data set on CA-rop2 seedlings (12 h oxygen deprivation); 0 Percentage in the data set with CA-rop2 seedlings (24 h oxygen deprivation); 90 ± 3 Percentage in the data set on DN-rop2 seedlings (0 h oxygen deprivation); 70 ± 4 Percentage with DN-rop2 seedlings (6 h oxygen deprivation); 0 Percentage with DN-rop2 seedlings (12 h oxygen deprivation); 0 Percentage in the data set with DN-rop2 seedlings (24 h oxygen deprivation). For the same compound, the “Viable Seedlings 48 h after Treatment” value with WT seedlings (0 h oxygen deprivation) was determined as 100 Percentage; in the data set with WT seedlings (6 h oxygen deprivation), 80 ± 5 Percentage; with WT seedlings (12 h oxygen deprivation), 0 Percentage; in the data set on WT seedlings (24 h oxygen deprivation), 0 Percentage. Further, the “effect on survival of O2 deprivation” value in the data set on ropgap4-1 seedlings (ropgap4-1 seedlings, DPI treatment) is “increased survival of O2 deprivation”. For the same compound, the “effect on survival of oxygen deprivation” value is “improved” in the data set with CA-rop2 seedlings (CA-rop2 seedlings, in the presence of DPI) and “impaired” in the data set on DN-rop2 seedlings (DN-rop2 seedlings, in the presence of DPI). In addition, in the data set with WT seedlings (oxygen deprivation with DPI (over 36 h without DPI)), the “duration of stress that WT seedlings survived” value is reported as “less than 12 h”. The “effect on caffeine-stimulated increase in H2O2” value in the data set on H2O2 is given as “effectively blocked”. Also, in the data set on ADH (all four genotypes, control and low oxygen conditions, 30 μM DPI), the “effect on ADH activity” value is “reduced ADH activity”. Also, the “effect on ADH induction” value in the data set on ADH (ropgap4-1 seedlings, oxygen deprivation, DPI treatment) is “reduced ADH induction”. Also, the “effect on caffeine-stimulated increase in ADH specific activity” value with ADH (seedlings treated with caffeine and DPI for 24 h) was “effectively blocked”. The “effect on rise of GUS activity in response to low oxygen and caffeine” value in data set [1] (DPI) is reported as “blocked”.
